Measured values reported in patent US9987242B2, “Treatment of Levodopa-induced Dyskinesias” (NORTHWESTERN UNIVERSITY, priority 2015, dated 2018).
“Also recorded” adds a separate entry of the source.

Tested on: dSPN glutamatergic synapses
Assay: Spike-timing-dependent LTD induction (post-pre pairing) in dSPNs, ex vivo corticostriatal slices, perforated-patch or whole-cell recording
Type: cell-based, mice
Text: Male C57Bl/6 and FVB mice expressing tdTomato or eGFP under control of either the Drd1 or Drd2 receptor regulatory elements were used. All the mice used for the study were hemizygous for these transgenes. For some experiments, D1-tdTomato BAC mice were crossed with a transgenic line expressing Cre recombinase under control of the ChAT promoter. All mice were 8-10 weeks of age before stereotaxic surgery. Animal use procedures were reviewed and approved by the Northwestern Institutional Animal Care and Use Committee.
Slices were then transferred to a holding chamber containing aCSF. After an incubation period at 34° C. for 30 min, the slices were then kept in the holding chamber at the room temperature for another 30 min before use.
Individual slices were transferred to a recording chamber and were continuously perfused (2-3 ml min^−1) with aCSF for the duration of the experiment. Experiments were performed in the dorsolateral striatum at elevated temperature (30-31° C.).
All the recordings were made using a MultiClamp 700 A amplifier, and signals were filtered at 2 kHz and digitized at 10 kHz. Data were excluded when the series resistance changed >20% over the time course of the experiment. […] Capacitance current was continuously monitored during perforation by applying a 5-10 mV pulse from a holding potential of −70 mV. The amplifier bridge circuit was adjusted to compensate for series resistance and continuously monitored during recordings. Electrode capacitance was also compensated. Data were excluded when the input resistance (Ri) changed >20% over the time course of the experiment.
Data analysis was conducted with Igor Pro 6 (Wavemetrics, Lake Oswego, Oreg.) and Clampfit 9 (Molecular Devices). EPSP amplitude was calculated from 50-60 sweeps immediately before the start of induction and 20-30 min after the end of induction. The change in EPSP amplitude was calculated by averaging EPSP values after the induction and normalized to the average baseline EPSP amplitude. Compiled data were expressed as mean±s.e.m. Statistical tests were performed using Excel (Microsoft, Redmond, Wash.) and SigmaStat (Systat, San Jose, Calif.). Non-parametric Mann-Whitney or Wilcoxon tests were used to assess the experiment results, using a probability threshold of 0.05.
To determine if M4Rs were modulating synaptic plasticity, a spike-timing-dependent plasticity (STDP) paradigm was used. […] Once identified, neurons were monitored and controlled with perforated-patch recording to preserve intracellular signaling mechanisms and to allow stable, long-term monitoring of synaptic strength (FIG. 1A).
Synaptic plasticity was induced by pairing local stimulation of glutamatergic afferent fibers with postsynaptic spikes evoked by short bursts of intracellular current injection that were repeated at 5 Hz (FIGS. 1B, 4A).

SMILES: Cc1cc(C)c2c(N)c(C(=O)NCc3ccc(Cl)cc3)sc2n1 [VU10010]
- LTD induction in dSPNs (EPSP amplitude) (VU10010 5 μM, no D1R antagonist, 20 repetitions of pairing): did not lead to LTD induction
- LTD induction in dSPNs (EPSP amplitude) (VU10010 5 μM, no D1R antagonist, 60 repetitions of pairing): LTD induction was robust; also recorded: LTD was induced
- LTD induction in dSPNs (EPSP amplitude) (physostigmine 10 μM co-applied with VU10010 5 μM, 20 repetitions): LTD was induced
